Source: the NIST ThermoML archive (doi:10.1016/j.tca.2013.08.016)

Key:
[1] = refractive index (Na D-line) (dimensionless); conditions: 101.33 kPa, Liquid, Standard Abbe refractometry
[2] = refractive index (Na D-line) (dimensionless); φn = volume fraction of the nth substance listed; conditions: 101 kPa, Liquid, Standard Abbe refractometry

CCCC[n+]1cccc(C)c1.F[B-](F)(F)F [1-butyl-3-methylpyridinium tetrafluoroborate]
[1]
Conditions | refractive index
293.15 K | 1.45248
303.15 K | 1.44976
313.15 K | 1.44706
323.15 K | 1.44425

CCCC[n+]1cccc(C)c1.F[B-](F)(F)F [1-butyl-3-methylpyridinium tetrafluoroborate] + CCO
[2]
Conditions | refractive index
293.15 K, φ1 = 0.0895 | 1.3713
293.15 K, φ1 = 0.1467 | 1.3773
293.15 K, φ1 = 0.2062 | 1.38325
293.15 K, φ1 = 0.2725 | 1.38979
293.15 K, φ1 = 0.4637 | 1.4075
293.15 K, φ1 = 0.5588 | 1.41595
293.15 K, φ1 = 0.6583 | 1.4245
293.15 K, φ1 = 0.6935 | 1.42757
293.15 K, φ1 = 0.8285 | 1.43878
293.15 K, φ1 = 0.883 | 1.44311
293.15 K, φ1 = 0.928 | 1.4467
293.15 K, φ1 = 0.9641 | 1.44963
293.15 K, φ1 = 1 | 1.45248
303.15 K, φ1 = 0.0891 | 1.3672
303.15 K, φ1 = 0.1461 | 1.37333
303.15 K, φ1 = 0.2054 | 1.3794
303.15 K, φ1 = 0.2716 | 1.38602
303.15 K, φ1 = 0.4626 | 1.404
303.15 K, φ1 = 0.5577 | 1.41257
303.15 K, φ1 = 0.6572 | 1.42134
303.15 K, φ1 = 0.6925 | 1.42444
303.15 K, φ1 = 0.8278 | 1.43584
303.15 K, φ1 = 0.8825 | 1.44031
303.15 K, φ1 = 0.9277 | 1.4439
303.15 K, φ1 = 0.964 | 1.4469
303.15 K, φ1 = 1 | 1.44976
313.15 K, φ1 = 0.0887 | 1.36314
313.15 K, φ1 = 0.1477 | 1.36964
313.15 K, φ1 = 0.2047 | 1.37558
313.15 K, φ1 = 0.2706 | 1.3823
313.15 K, φ1 = 0.4614 | 1.40055
313.15 K, φ1 = 0.5565 | 1.40924
313.15 K, φ1 = 0.6561 | 1.4182
313.15 K, φ1 = 0.6914 | 1.42134
313.15 K, φ1 = 0.8271 | 1.43292
313.15 K, φ1 = 0.882 | 1.43752
313.15 K, φ1 = 0.9273 | 1.44114
313.15 K, φ1 = 0.9638 | 1.44418
313.15 K, φ1 = 1 | 1.44706
323.15 K, φ1 = 0.0883 | 1.35913
323.15 K, φ1 = 0.147 | 1.36572
323.15 K, φ1 = 0.2037 | 1.37173
323.15 K, φ1 = 0.2695 | 1.37856
323.15 K, φ1 = 0.4599 | 1.39714
323.15 K, φ1 = 0.555 | 1.40599
323.15 K, φ1 = 0.6548 | 1.41504
323.15 K, φ1 = 0.6902 | 1.41823
323.15 K, φ1 = 0.8263 | 1.42988
323.15 K, φ1 = 0.8814 | 1.43448
323.15 K, φ1 = 0.9269 | 1.43827
323.15 K, φ1 = 0.9636 | 1.44135
323.15 K, φ1 = 1 | 1.44425

CCCC[n+]1cccc(C)c1.F[B-](F)(F)F [1-butyl-3-methylpyridinium tetrafluoroborate] + CO
[2]
Conditions | refractive index
293.15 K, φ1 = 0.0958 | 1.34245
293.15 K, φ1 = 0.2025 | 1.35728
293.15 K, φ1 = 0.2756 | 1.36702
293.15 K, φ1 = 0.3528 | 1.37693
293.15 K, φ1 = 0.4508 | 1.38917
293.15 K, φ1 = 0.5501 | 1.40126
293.15 K, φ1 = 0.6751 | 1.416
293.15 K, φ1 = 0.7686 | 1.42667
293.15 K, φ1 = 0.828 | 1.43333
293.15 K, φ1 = 0.8763 | 1.43873
293.15 K, φ1 = 0.9159 | 1.44307
293.15 K, φ1 = 0.9334 | 1.445
293.15 K, φ1 = 0.9732 | 1.44949
293.15 K, φ1 = 1 | 1.45248
303.15 K, φ1 = 0.0958 | 1.33885
303.15 K, φ1 = 0.2025 | 1.35407
303.15 K, φ1 = 0.2756 | 1.364
303.15 K, φ1 = 0.3528 | 1.37406
303.15 K, φ1 = 0.4508 | 1.38641
303.15 K, φ1 = 0.5501 | 1.39855
303.15 K, φ1 = 0.6751 | 1.41337
303.15 K, φ1 = 0.7686 | 1.42402
303.15 K, φ1 = 0.828 | 1.43069
303.15 K, φ1 = 0.8763 | 1.43606
303.15 K, φ1 = 0.9159 | 1.44042
303.15 K, φ1 = 0.9334 | 1.44233
303.15 K, φ1 = 0.9732 | 1.4468
303.15 K, φ1 = 1 | 1.44976
313.15 K, φ1 = 0.0948 | 1.33503
313.15 K, φ1 = 0.2006 | 1.3505
313.15 K, φ1 = 0.2756 | 1.36083
313.15 K, φ1 = 0.3501 | 1.37069
313.15 K, φ1 = 0.4478 | 1.38319
313.15 K, φ1 = 0.5471 | 1.39542
313.15 K, φ1 = 0.6725 | 1.41032
313.15 K, φ1 = 0.7665 | 1.4211
313.15 K, φ1 = 0.8262 | 1.42784
313.15 K, φ1 = 0.875 | 1.4333
313.15 K, φ1 = 0.915 | 1.43765
313.15 K, φ1 = 0.9327 | 1.43961
313.15 K, φ1 = 0.9729 | 1.44409
313.15 K, φ1 = 1 | 1.44706
323.15 K, φ1 = 0.0942 | 1.332
323.15 K, φ1 = 0.1995 | 1.34774
323.15 K, φ1 = 0.2718 | 1.35784
323.15 K, φ1 = 0.3485 | 1.3681
323.15 K, φ1 = 0.4461 | 1.38056
323.15 K, φ1 = 0.5454 | 1.39283
323.15 K, φ1 = 0.6709 | 1.40773
323.15 K, φ1 = 0.7652 | 1.41853
323.15 K, φ1 = 0.8253 | 1.42521
323.15 K, φ1 = 0.8742 | 1.43058
323.15 K, φ1 = 0.9144 | 1.43492
323.15 K, φ1 = 0.9322 | 1.43687
323.15 K, φ1 = 0.9727 | 1.44133
323.15 K, φ1 = 1 | 1.44425

CCCC[n+]1ccc(C)cc1.F[B-](F)(F)F [1-butyl-4-methylpyridinium tetrafluoroborate]
[1]
Conditions | refractive index
293.15 K | 1.45386
303.15 K | 1.45114
313.15 K | 1.44841
323.15 K | 1.44571

CCCC[n+]1ccccc1.F[B-](F)(F)F [1-butylpyridinium tetrafluoroborate]
[1]
Conditions | refractive index
293.15 K | 1.44719
303.15 K | 1.44454
313.15 K | 1.4419
323.15 K | 1.43924
